This note sets out measurements from patent US10786481B2, “Hydroquinone compounds, preparation methods therefor, and use in anti-tumor or immunomodulation therapy” (Biomedical Analysis Center, Academy of Military Medical …, priority 2016, dated 2020).

The first data set concerns immortalized mice bone marrowmacrophages (IBMM). The data set is described as follows: Cytotoxicity, MTS method, IBMM cell. The format is cell-based. The settings on record: Mus musculus, Bone marrow macrophage, MTS method; read-out: IC50(mM) IBMM cell. The text has this:
(§1) The toxicity of compounds is detected with MTS method in the immortalized mice bone marrowmacrophages (IBMM), mice embryonic fibroblast (NIH3t3) and humanized embryonic nephrocyte.
A general note: Tetrazolium assays rely on reduction of a dye to a coloured formazan, in cell work by metabolically active cells.
As usually defined, the IC50 is the midpoint of a concentration-inhibition curve. Take `CCC(=O)Oc1ccc(OC)cc1C(C)(C)C` [XH2016, 2-tert-butyl-4-methoxyphenol propionate]: the IC50 came out at 0.148 mM.

For `C=CC(=O)Oc1ccc(OC)cc1C(C)(C)C` [XH2017, 2-tert-butyl-4-methoxyphenol acrylate], the IC50 was found to be 0.56 mM.

Turning to `COc1ccc(OC(=O)c2cc(Cl)nnc2Cl)c(C(C)(C)C)c1` [XH2038-1, (2-tert-butyl-4-methoxyphenol) 3,6-dichloropyridazine-4-formate], the IC50 was 0.222 mM.

In a further data set the test system is mice embryonic fibroblast (NIH3t3). The experiment in a line: Cytotoxicity, MTS method, NIH3T3 cell. It counts as cell-based. The settings on record: Mus musculus, NIH3T3, MTS method; read-out: IC50(mM) NIH3T3 cell.
From the text: as §1
Consider `CCC(=O)Oc1ccc(OC)cc1C(C)(C)C` [XH2016, 2-tert-butyl-4-methoxyphenol propionate], for which the 50% inhibitory concentration (IC50) was determined as 0.0186 mM.

With `C=CC(=O)Oc1ccc(OC)cc1C(C)(C)C` [XH2017, 2-tert-butyl-4-methoxyphenol acrylate], the IC50 amounted to 0.0229 mM.

As to `COc1ccc(OC(=O)c2cc(Cl)nnc2Cl)c(C(C)(C)C)c1` [XH2038-1, (2-tert-butyl-4-methoxyphenol) 3,6-dichloropyridazine-4-formate], the IC50 came out at 0.236 mM.

A further data set has as its system humanized embryonic nephrocyte (HEK293 cell). The experiment in a line: Cytotoxicity, MTS method, HEK293 cell. It counts as cell-based. The settings on record: Homo sapiens, HEK293, MTS method; read-out: IC50(mM) HEK293 cell.
From the text: as §1
For the compound `CCC(=O)Oc1ccc(OC)cc1C(C)(C)C` [XH2016, 2-tert-butyl-4-methoxyphenol propionate], the IC50 amounted to 0.065 mM.

Consider `C=CC(=O)Oc1ccc(OC)cc1C(C)(C)C` [XH2017, 2-tert-butyl-4-methoxyphenol acrylate], for which the IC50 was 0.008 mM.

Regarding `COc1ccc(OC(=O)c2cc(Cl)nnc2Cl)c(C(C)(C)C)c1` [XH2038-1, (2-tert-butyl-4-methoxyphenol) 3,6-dichloropyridazine-4-formate], the IC50 was found to be 0.33 mM.

System in the next data set: not listed separately
The data set is described as follows: Release experiment of target compound in human plasma. Particulars: 37° C., 5 min to 9 h.
Protocol: Mobile phase: gradient elution; A: water; B: methanol;
Chromatographic column: CAPCEL PAK MF PH-1;
Detecting instrument: TQ-S; ion source: APCI; ion detection mode: MRM;
Dissolving the target compound with DMSO, then diluting to 5 μg/mL with the normal saline of 0.9%. The human blank plasma after subpackage is preserved at −70° C., unfreezing in a refrigerator at 4° C. when used. Take 20 μL of the blank plasma, adding 20 μL of the target compound solution as above formulated, vortexing for 15 s, and left it in the water bath at 37° C. […] Take the supernatant and inject 10 μL for detection.
As to `COc1ccc(OC(=O)c2ccccc2-c2ccccc2C(=O)Oc2ccc(OC)cc2C(C)(C)C)c(C(C)(C)C)c1` [XH2020, bis(2-tert-butyl-4-methoxyphenol)2,2′-biphenyldicarboxylate], the “release of BHA in human plasma” value is listed as “releases BHA”.

Turning to `COc1ccc(OC(=O)Cc2cccc(F)c2)c(C(C)(C)C)c1` [XH2022, (2-tert-butyl-4-methoxyphenol) 3-fluorophenylacetate], the “release of BHA in human plasma” value was “releases BHA”.

For `COc1ccc(OC(=O)CCc2ccc(F)cc2)c(C(C)(C)C)c1` [XH2024, (2-tert-butyl-4-methoxyphenol) 3-(4-fluorophenyl)-propionate], the “release of BHA in human plasma” value was “releases BHA”.

In the case of `COc1ccc(OC(=O)C2CCCN(C(=O)OC(C)(C)C)C2)c(C(C)(C)C)c1` (stereo not shown) [XH2025, (2-tert-butyl-4-methoxyphenol) N-tert-butoxycarbonylpiperidine-3-formate], the “release of BHA in human plasma” value is given as “releases BHA”.

As for `COc1ccc(OC(=O)CCc2cccc([N+](=O)[O-])c2)c(C(C)(C)C)c1` [XH2028, (2-tert-butyl-4-methoxyphenol) 3-(3-nitrophenyl)propionate], the “release of BHA in human plasma” value is “releases BHA”.

Regarding `COc1ccc(OC(=O)c2ccc(-c3ccccc3)cc2)c(C(C)(C)C)c1` [XH2029, (2-tert-butyl-4-methoxyphenol) 4-phenylbenzoate], the “release of BHA in human plasma” value is on record as “releases BHA”.

Regarding `COc1ccc(OC(=O)c2cnccc2C)c(C(C)(C)C)c1` [XH2030, (2-tert-butyl-4-methoxyphenol) 4-methylpyridine-3-formate], the “release of BHA in human plasma” value is reported as “releases BHA”.

On to `COc1ccc(OC(=O)c2cnccc2OC)c(C(C)(C)C)c1` [XH2031, (2-tert-butyl-4-methoxyphenol) 4-methoxypyridine-3-formate], for which the “release of BHA in human plasma” value is “releases BHA”.

`CCCCCCCCCCCCCCCC(=O)Oc1ccc(OC)cc1C(C)(C)C` [XH2033, 2-tert-butyl-4-methoxyphenol hexadecylate]: the “release of BHA in human plasma” value was “releases BHA”.

Turning to `COc1ccc(OC(=O)CNC(=O)OC(C)(C)C)c(C(C)(C)C)c1` [XH2034, N-tert-butoxycarbonylglycine(2-tert-butyl-4-methoxyphenol)ester], the “release of BHA in human plasma” value is recorded as “releases BHA”.

In the case of `COc1ccc(OC(=O)c2ccc(Cl)c(F)c2)c(C(C)(C)C)c1` [XH2035, (2-tert-butyl-4-methoxyphenol) 3-fluoro-4-chlorobenzoate], the “release of BHA in human plasma” value is given as “releases BHA”.

On to `COc1ccc(OC(=O)c2cccc(C#N)c2)c(C(C)(C)C)c1` [XH2036-2, (2-tert-butyl-4-methoxyphenol) 3-cyanobenzoate], for which the “release of BHA in human plasma” value was “releases BHA”.

Turning to `COc1ccc(OC(=O)c2cccnc2Cl)c(C(C)(C)C)c1` [XH2038-4, (2-tert-butyl-4-methoxyphenol) 2-chloro-3-picolinate], the “release of BHA in human plasma” value is given as “releases BHA”.

Regarding `COc1ccc(OC(=O)CCc2ccc(C)cc2)c(C(C)(C)C)c1` [XH2039-1, (2-tert-butyl-4-methoxyphenol) 3-(4-methylphenyl)-propionate], the “release of BHA in human plasma” value is listed as “releases BHA”.

On to `COc1ccc(OC(=O)C(C)c2ccccc2)c(C(C)(C)C)c1` (stereo not shown) [XH2039-3, (2-tert-butyl-4-methoxyphenol) 2-phenyl propionate], for which the “release of BHA in human plasma” value is listed as “releases BHA”.

Take `COc1ccc(OC(=O)C(C)F)c(C(C)(C)C)c1` (stereo not shown) [XH2039-4, (2-tert-butyl-4-methoxyphenol) 2-fluoropropionate]: the “release of BHA in human plasma” value is given as “releases BHA”.

Regarding `COc1ccc(OC(=O)CC23CC4CC(CC(C4)C2)C3)c(C(C)(C)C)c1` [XH2040-1, (2-tert-butyl-4-methoxyphenol) adamantaneacetate], the “release of BHA in human plasma” value is on record as “releases BHA”.

On to `COc1ccc(OC(=O)CCCCCC(C)=O)c(C(C)(C)C)c1` [XH2040-5, (2-tert-butyl-4-methoxyphenol) 7-oxooctanoate], for which the “release of BHA in human plasma” value was “releases BHA”.

Take `COc1ccc(OC(=O)c2cc(I)ccc2Br)c(C(C)(C)C)c1` [XH2041-3, (2-tert-butyl-4-methoxyphenol) 2-bromo-5-iodo benzoate]: the “release of BHA in human plasma” value was “releases BHA”.

Take `COc1ccc(OC(=O)c2ccc([N+](=O)[O-])cc2F)c(C(C)(C)C)c1` [XH2041-4, (2-tert-butyl-4-methoxyphenol) 2-fluoro-4-nitryl benzoate]: the “release of BHA in human plasma” value is “releases BHA”.

Turning to `COc1ccc(OC(=O)C2CCCN(C(=O)OC(C)(C)C)C2)c(C(C)(C)C)c1` (stereo not shown) [XH2041-5, (2-tert-butyl-4-methoxyphenol) N-tert-butoxycarbonylpiperidine-3-formate], the “release of BHA in human plasma” value is reported as “releases BHA”.

On to `COc1ccc(OC(=O)CCCC(=O)c2ccccc2)c(C(C)(C)C)c1` [XH2043-1, (2-tert-butyl-4-methoxyphenol) 4-benzoyl butyrate], for which the “release of BHA in human plasma” value is reported as “releases BHA”.

With `COc1cc(C=CC(=O)Oc2ccc(OC)cc2C(C)(C)C)cc(OC)c1` [XH2043-2, (2-tert-butyl-4-methoxyphenol) 3,5-dimethoxy phenylacrylate], the “release of BHA in human plasma” value is recorded as “releases BHA”.

`COc1ccc(OC(=O)c2cc(Cl)ccn2)c(C(C)(C)C)c1` [XH2043-3, (2-tert-butyl-4-methoxyphenol) 4-chloropyridine-2-formate]: the “release of BHA in human plasma” value is “releases BHA”.

Turning to `COc1ccc(OC(=O)C2CCCN(C)C2)c(C(C)(C)C)c1` (stereo not shown) [XH2043-4, (2-tert-butyl-4-methoxyphenol) N-methylpiperidine-3-formate], the “release of BHA in human plasma” value was “releases BHA”.

For `COc1ccc(OC(=O)CCc2cc(C(C)(C)C)c(O)c(C(C)(C)C)c2)c(C(C)(C)C)c1` [XH2045-2, (2-tert-butyl-4-methoxyphenol) 3-(3,5-di-tert-butyl-4-hydroxy-phenyl)propionate], the “release of BHA in human plasma” value was “releases BHA”.

Regarding “(2-tert-butyl-4-methoxyphenol) 1-methylcyclopropyl formate [XH2038-2]”, the “release of BHA in human plasma” value is listed as “releases BHA”.

In the case of “di(2-tert-butyl-4-methoxyphenol) adipate [XH2046-3]”, the “release of BHA in human plasma” value is “releases BHA”.

Consider “di(2-tert-butyl-4-methoxyphenol) malonate [XH2037]”, for which the “release of BHA in human plasma” value was “releases BHA”.

In the case of “di(2-tert-butyl-4-methoxyphenol) p-phenylenediacetate [XH2042]”, the “release of BHA in human plasma” value was “releases BHA”.

Take “di(2-tert-butyl-4-methoxyphenol) terephthalate [XH2026]”: the “release of BHA in human plasma” value is on record as “releases BHA”.
